Common to all, as to test: NCI tumour cell line growth inhibition, 48 h
Test [1] deals with BT-549.
In test [2] the test system is NCI-H23.
Test [3] concerns MDA-MB-231.
The test system of test [4] is OVCAR-5.
Test [5] relates to A498.
The test system of test [6] is CCRF-CEM.
Test [7] has as its system EKVX.
Test [8] deals with ACHN.
Test [9] relates to MDA-MB-435.
In test [10] the test system is UACC-62.
The test system of test [11] is MDA-N.
The subject of test [12] is SF-539.
In test [13] the test system is MCF7.
In test [14] the test system is CAKI-1.
Test [15] concerns SK-MEL-5.
The subject of test [16] is HCC 2998.
Test [17] has as its system HOP-92.
Test [18] has as its system M14.
Test [19] deals with SR.
The subject of test [20] is IGROV-1.

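These data come from cells grown in 96-well plates and exposed to compound for 48 hours at five concentrations. Abbreviation: GI50, concentration required for 50% inhibition of growth.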 Active and inactive are the calls of the source. Cut-off read from the data, not from the text of the source: active = GI50 up to about 1.1 µM and inactive = higher.

In the case of `CN(C)CCNC(=O)c1cccc2[nH]c(-c3ccncc3)nc12`, the GI50 was 11.4 µM (inactive) in test [1]; 8.39 µM (inactive) in test [2]; 3.24 µM (inactive) in [3]; 10.1 µM (inactive) in test [4]; 4.05 µM (inactive) in test [5]; 2.29 µM (inactive) in test [6]. Moreover, the GI50 in [7] is 12.4 µM (inactive); in test [8] it was 6.53 µM (inactive); in test [9] it was 1.84 µM (inactive); in test [10] it was 2.96 µM (inactive); in test [11], 1.74 µM (inactive); in test [12], 2.65 µM (inactive). In addition, the GI50 is 3.44 µM (inactive) in [13]; 2.55 µM (inactive) in [14]; 2.75 µM (inactive) in [15]; 1.95 µM (inactive) in test [16]; 6.82 µM (inactive) in test [17]; 1.82 µM (inactive) in test [18]. Moreover, the GI50 in [19] was 3.38 µM (inactive); in test [20], 7.5 µM (inactive).
Consider `c1ccc(C2=NCCN2)c(C2=NCCN2)c1`, for which the GI50 in test [1], in test [2], in test [3], in test [4], in test [5] and in test [6] was > 100 µM (inactive) each time. For the same molecule, the GI50 in [7], in test [8], in test [9], in test [10], in test [11] and in test [12] was > 100 µM (inactive) in each case. In addition, the GI50 in test [13] is > 100 µM (inactive); in [14] it was > 100 µM (inactive); in [15], > 100 µM (inactive); in [16] it was 57.3 µM (inactive); in [17], > 100 µM (inactive); in test [18] it was > 100 µM (inactive). In addition, the GI50 in test [19] and in test [20] was > 100 µM (inactive) each time.
Consider `Cc1ccc2c(c1C)C(=O)C1(Cc3cc4c(cc3C1=O)CCC4)C2` (stereo not given), for which the GI50 in test [1], in test [2], in test [3], in [4], in [5] and in test [6] was > 100 µM (inactive) each time. Also, the GI50 in [7] is > 100 µM (inactive); in test [8] it was > 100 µM (inactive); in test [9], > 100 µM (inactive); in test [10] it was > 100 µM (inactive); in test [11] it was > 100 µM (inactive); in test [12], 0.726 µM (active). Further, the GI50 in test [13], in test [14], in [15], in test [16], in [17] and in test [18] was > 100 µM (inactive) throughout. Further, the GI50 in test [19] and in [20] was > 100 µM (inactive) in each case.
`C/C=N\n1c(C)c(C#N)c(C#N)c1N`: the GI50 in test [1], in [2], in test [3], in [4], in test [5] and in test [6] was > 100 µM (inactive) in each case. The GI50 in test [7], in test [8], in test [9], in test [10], in test [11] and in [12] was > 100 µM (inactive) in each case. Further, the GI50 in test [13], in test [14], in test [15], in [16], in test [17] and in [18] was > 100 µM (inactive) in each case. Further, the GI50 in [19] and in test [20] was > 100 µM (inactive) each time.
Turning to `O=c1oc2cc(/N=C/c3ccccc3Cl)ccc2c2ccccc12`, the GI50 in test [1], in [2], in test [3], in test [4], in test [5] and in test [6] was > 100 µM (inactive) in each case. Besides, the GI50 is 49.2 µM (inactive) in test [7]; > 100 µM (inactive) in [8]; > 100 µM (inactive) in test [9]; 40.7 µM (inactive) in test [10]; > 100 µM (inactive) in test [11]; > 100 µM (inactive) in [12]. Also, the GI50 is 14.2 µM (inactive) in [13]; > 100 µM (inactive) in test [14]; > 100 µM (inactive) in test [15]; > 100 µM (inactive) in test [16]; > 100 µM (inactive) in test [17]; > 100 µM (inactive) in [18]. Moreover, the GI50 in [19] and in test [20] was > 100 µM (inactive) in each case.
With `CC(C)=CCC/C(C)=C/CC/C(C)=C/CCN(C)CCO`, the GI50 in test [1] was 10.8 µM (inactive); in test [2] it was 11.6 µM (inactive); in [3], 10.9 µM (inactive); in [4] it was 6.46 µM (inactive); in [5] it was 14.2 µM (inactive); in test [6], 2.39 µM (inactive). The GI50 in test [7] was 16.8 µM (inactive); in [8] it was 10.8 µM (inactive); in test [9] it was 4.44 µM (inactive); in test [10] it was 13.5 µM (inactive); in test [11] it was 3.75 µM (inactive); in test [12], 4.25 µM (inactive). The GI50 was 2.45 µM (inactive) in test [13]; 6.32 µM (inactive) in test [14]; 1.89 µM (inactive) in [15]; 2.03 µM (inactive) in test [16]; 3.32 µM (inactive) in test [17]; 1.95 µM (inactive) in [18]. Besides, the GI50 in test [19] is 6.35 µM (inactive); in test [20], 2.94 µM (inactive).
With `OCCO[P+]1(OCCO)n2c3ccc2C(c2ccccc2)=C2C=CC(=N2)C(c2ccccc2)=c2ccc(n21)=C(c1ccccc1)C1=NC(=C3c2ccccc2)C=C1`, the GI50 in test [1] is 0.0118 µM (active); in test [2], 0.0327 µM (active); in [3], 0.042 µM (active); in test [4] it was 0.102 µM (active); in test [5], 0.349 µM (active); in test [6], 0.0158 µM (active). In addition, the GI50 was 0.104 µM (active) in test [7]; 0.251 µM (active) in test [8]; 0.0296 µM (active) in test [9]; 0.0303 µM (active) in test [10]; 0.0344 µM (active) in test [11]; 0.0335 µM (active) in test [12]. Besides, the GI50 was 0.0267 µM (active) in [13]; 0.783 µM (active) in [14]; 0.0296 µM (active) in test [15]; 0.0195 µM (active) in test [16]; 0.0382 µM (active) in test [17]; 0.163 µM (active) in test [18]. Besides, the values for the GI50 in test [19] and in test [20] were < 0.0106 µM (active) and 0.022 µM (active), respectively.
Consider `CC(=O)Oc1ccc(/C=C/C(=O)O[C@@H](C)[C@H](C)OC(=O)/C=C/c2ccc(OC(C)=O)c(OC(C)=O)c2)cc1OC(C)=O`, for which the GI50 in [1] was 10 µM (inactive); in test [2] it was 6.5 µM (inactive); in [3], 39.9 µM (inactive); in [4], 21.2 µM (inactive); in test [5], 24.7 µM (inactive); in [6] it was 3.94 µM (inactive). Besides, the GI50 in test [7] was 22.9 µM (inactive); in test [8], 11.4 µM (inactive); in test [9], 12.2 µM (inactive); in test [10] it was 8.41 µM (inactive); in test [11], 11.1 µM (inactive); in [12] it was > 100 µM (inactive). The GI50 in [13] is 20 µM (inactive); in test [14], 27.3 µM (inactive); in test [15], 10.6 µM (inactive); in test [16] it was 11.4 µM (inactive); in test [17] it was 20.2 µM (inactive); in test [18] it was 11.4 µM (inactive). The GI50 is 5.77 µM (inactive) in [19] and 5.75 µM (inactive) in test [20].
`CN(C)CCNc1ccc2nnn3c4ccc(O)cc4c(=O)c1c23`: the GI50 in test [1] is 15.2 µM (inactive); in test [2], 3.75 µM (inactive); in test [3], 0.273 µM (active); in [4] it was 4.41 µM (inactive); in test [5], 3.71 µM (inactive); in [6], 1.11 µM (active). The GI50 was 3.13 µM (inactive) in [7]; 2.76 µM (inactive) in test [8]; 4.07 µM (inactive) in test [9]; 4.74 µM (inactive) in [10]; 1.86 µM (inactive) in test [11]; 3.95 µM (inactive) in [12]. The GI50 in [13] is 2.44 µM (inactive); in [14] it was 3.13 µM (inactive); in [15], 2.53 µM (inactive); in test [16] it was 5.48 µM (inactive); in test [17], 4.59 µM (inactive); in test [18], 7.59 µM (inactive). For the same molecule, the GI50 was 0.18 µM (active) in test [19] and 1.96 µM (inactive) in [20].
For `CC(C)=CCC[C@](C)(O)[C@H]1CC[C@]2(C)[C@@H]1[C@H](O)C[C@@H]1[C@@]3(C)CC[C@H](O[C@@H]4O[C@H](CO)[C@@H](O)[C@H](O)[C@H]4O)C(C)(C)[C@@H]3CC[C@]12C` [GINSENOSIDE RH2], the GI50 was 18 µM (inactive) in test [1]; 20.6 µM (inactive) in [2]; 18.2 µM (inactive) in [3]; 26.2 µM (inactive) in test [4]; 19.8 µM (inactive) in [5]; 23.5 µM (inactive) in [6]. Moreover, the GI50 in test [7] is 22.7 µM (inactive); in test [8], 17.8 µM (inactive); in test [9] it was 18.2 µM (inactive); in test [10], 16.6 µM (inactive); in test [11], 19.8 µM (inactive); in [12], 22.2 µM (inactive). Further, the GI50 was 17.3 µM (inactive) in test [13]; 18.7 µM (inactive) in test [14]; 18.1 µM (inactive) in test [15]; 27.9 µM (inactive) in test [16]; 18.7 µM (inactive) in test [17]; 27.2 µM (inactive) in [18]. For the same molecule, the GI50 in [19] is 14 µM (inactive); in test [20] it was 16.3 µM (inactive).

Values taken from ChEMBL document CHEMBL1201862, “PubChem BioAssay data set” (2004).
